For one assay, the system named is MMP-13. Kind of assay: PTH-induced MMP-13 expression in UMR 106-01 osteoblast cells (real time quantitative RT-PCR). In kind it is cell-based, Rat. As to the method:
Parathyroid hormone (rat PTH 1-34) was purchased from Sigma. UMR 106-01 cells were cultured in Eagle's minimal essential medium (EMEM) supplemented with 25 mM Hepes pH 7.4, 1% nonessential amino acids, 100 units/rill penicillin, 100 μg/ml streptomycin. 5% fetal bovine serum. Real Time Quantitative RT-PCR was conducted according to the following method: UMR 106-01 cells were seeded in 12-well plates and cultured for 2-3 days in cell culture media. When cells were confluent, cell culture media was exchanged with 1% fetal bovine serum for overnight for cell starvation. Cells were pre-incubated with triclosan or a triclosan-containing dentifrice (see. e.g., U.S. Pat. Nos. 4,894,220, 5,032,386, and related patents) for 15 min and then incubated with PTH (10^−8 M) for 4 hours.
Total RNA was isolated from UMR 106-01 cells stimulated with or without PTH with TRIzol reagent. Total RNA (0.1 μg) was reverse-transcribed to cDNA using the Invitrogen SUPERSCRIPT kit according to the manufacturer's instructions. All cDNAs were amplified by adding 2.5 μl of cDNA to the PCR mixture (22.5 μl) containing each primer (0.2 μM) and 12.5 μl of the Platinum SYBR Green qPCR SuperMix UDG (Invitrogen). The reactions were preincubated at 50° C. for 2 minutes to decontaminate dU-containing DNA by UDG, then at 95° C. for 2 minutes to inactivate UDG and activate Taq. The PCR program continued 49 cycles of denaturation at 95° C. for 15 seconds, annealing and elongation of the primers at 60° C. for 30 seconds. Relative quantification of gene expression was determined by using the 2-delta delta CT method where fold changes in gene expression are relative to control samples. All samples were normalized to β-actin.
All results were expressed as means±standard error (S.E.) of triplicate measurements with all experiments being repeated at least three times. Statistical analyses were carried out using the Student's t test.

The test system of a further assay is MMP-9. Put plainly: TNFα-induced MMP-9 production of U937 monocytes (ELISA of conditioned media). The following applies: for MMP-9 production, Average: U937 cells, 24 hours, conditioned media ELISA. Format: cell-based, Human. As to the method: U937 cells and RPMI 1640 culture medium were obtained from ATCC. Human MMP-9 ELISA Kit (QUANTIKINE) was obtained from R&D Systems. Fetal Bovine Serum (FBS) was obtained from VWR, and the penicillin-streptomycin solution and Tumor Necrosis Factor α (TNFα) were obtained from Sigma.
Human leukemia U937 monocyte lymphoma cells were cultured in RPMI 1640 medium supplemented with 10% FBS and 1% Penicillin-Streptomycin solution. Cells were incubated at 37° C. in a humidified atmosphere containing 5% CO2 and 95% air. Before treatment, cells were transferred into RPMI containing 1% FBS for overnight. Cells were plated on a 48 well plate. Cell culture medium included either TNFα (250 ng/mL), Triclosan(1 ppm), or both agents together or no agent (control). Cells were incubated after treatment for 24 hours. Conditioned media were collected and store at −80° C. until analysis. Samples of conditioned media were subjected to enzyme-linked immunosorbent assays (ELISA) for MMP-9, according to commercial ELISA protocol (FIG. 1).
For orientation: In an ELISA, binding on a coated surface is turned into a signal by an enzyme label.

For assay [1] the following is noted: with PEG 600, weight ratio of 25 triclosan:1 PEG 600, versus absence of polyethylene glycol; cited from earlier work.

Data on two molecules can be found in patent publication US8637266B2, “Anti bone-loss and anti attachment-loss effects of an oral composition” (Colgate-Palmolive Company, priority 2009, dated 2014).

As for `Oc1cc(Cl)ccc1Oc1ccc(Cl)cc1Cl` [Triclosan, 2,4,4′-trichloro-2′-hydroxydiphenyl ether], the “MMP-13 expression, Average (fold change relative to control, normalized to β-actin)” value is given as 35.38 in the assay with MMP-13 (Triclosan 1 ppm + PTH 10^−8 M, 15 min pre-incubation, 4 hours); 0.4166 in the assay with MMP-13 (Triclosan 1 ppm, without PTH); 10.56 with MMP-13 (Triclosan 4 ppm + PTH 10^−8 M, 15 min pre-incubation, 4 hours); 1.424 with MMP-13 (Triclosan 4 ppm, without PTH); 3.012 in the assay with MMP-13 (Triclosan 10 ppm + PTH 10^−8 M, 15 min pre-incubation, 4 hours); 1.518 in the assay with MMP-13 (Triclosan 10 ppm, without PTH). Further, in the assay on MMP-13 (Triclosan at 10 ppm, 4 ppm and 1 ppm), the “effect on MMP-13 expression in PTH stimulated UMR cells” value was “significantly reduced”. The “effect on MMP-9 level in TNFα stimulated U937 cells” value in the assay with MMP-9 (Triclosan at 1 ppm) is “significantly reduced”. Further, the “MMP-9 production, Average” value in the assay on MMP-9 (TNFα 250 ng/mL + Triclosan 1 ppm) is 0.155 ng/mL. In addition, the “factor by which antibacterial activity is reduced” value in assay [1] is 10-20.
Take TNFα: the “MMP-9 production, Average” value in the assay with MMP-9 (TNFα 250 ng/mL alone) was determined as 0.275 ng/mL.
